In patent publication US8044035B2, “Pharmaceutical compositions of pyrimidine-2,4,6-triones” (priority 2004, dated 2011):
≈ marks a conversion by molar mass, not a printed value.

Tests used:
[1] = Phase solubility studies with L-lysine solution as adjuvant (25° C., 7 days, LC); assay type: physicochemical
Method: Solubility studies were performed as described by Higuchi, T., and Connors, K. A., Advances in Analytical Chemistry and Instrumentation 4 (1965) 117-212. Excess amounts of Compound I were added to increasing concentrations of HP-β-CD (0-200 mM) in 5 ml dissolution media, either purified water or L-lysine solutions (50 mM or 500 mM). The glass containers were sealed and the suspensions were shaken in a water-bath at 25° C. until complexation equilibrium was reached (7 days). An aliquot was filtered through a 0.45 μm PVDF membrane filter and assayed for Compound I content by a validated liquid chromatography (LC) method.

[2] = Differential solubility in acetonitrile of free and complexed compound I; assay type: physicochemical; conditions: organic solvent or mixture; free compound
Description: Compound I has different solubility when it is in the complex form or not. […] In these conditions the included drug remains trapped and becomes insoluble in the solvent. This technique of differential solubility between compound I in the free or in the complexed form can be applied to evaluate the percentage of complexation.

[3] = tested on: aorta ring, formation of new vessels (angiogenesis); test: Aorta ring model of neovascularisation (inhibition of angiogenesis); assay type: cell-based; conditions: aorta ring in culture medium, final concentration 10^−6 M, 10^−7 M
Description: In order to study the potential effects of the complex Compound I-cyclodextrine, a model of neovascularisation has been used. An aorta ring is cut and placed in a culture medium. This culture medium containing either: • no active principle • the complex compound I-cyclodextrins (final concentration 10-^6M, 10^−7M) • compound I dissolved in DMSO with the help of […] (final concentration 10-^6, 10-^7M).

[4] = tested on: allergen-induced airway inflammation in a mouse model of asthma; test: Mouse model of asthma, intraperitoneal injection of Compound I; assay type: in vivo, mice
Method: No inhalations were performed during even weeks.

[5] = tested on: allergen-induced airway inflammation in a mouse model of asthma; test: Mouse model of asthma, inhalation, long-term exposure challenge (11 weeks); conditions: aerosol, long term (11 weeks) allergen exposure, p<0.01
Method: Intraperitoneal injections were performed 30 min before OVA inhalations. […] Two protocols referred to as short exposure challenge and long-term exposure challenge were used. […] No inhalations were performed during even weeks.
The aerosol were produced by using an ultrasonic nebuliser SYSTAM (Système Assistance Medical, Le Ledat, France), the vibration frequency of which is 2.4 MHz with variable vibration intensity and ventilation levels. Vibration intensity was fixed in position 6 and the ventilation level was 25(v1/2) l/min.
Immediately after the assessment of airway responsiveness, mice were sacrificed and 1 ml of PBS free of ionised calcium and magnesium but supplemented with 0.05 mM sodium EDTA was instilled 4 times via a tracheal cannula and recovered by gentle manual aspiration. […] After BAL, the thorax was opened and the left main bronchus was clamped. […] Another score referred to as tissue eosinophil infiltration score, specifically reflecting the amounts of eosinophils infiltrating the bronchial walls, was measured as follows: after a congo red staining, seven bronchi were studied per mouse. The eosinophils were counted around the bronchi within the limits of the airway wall, the perimeter of the epithelial basement membrane was measured and the results were expressed as number of eosinophils/mm of basement membrane.

## O=C1NC(=O)C(c2ccc(-c3ccccc3)cc2)(N2CCN(c3ccc([N+](=O)[O-])cc3)CC2)C(=O)N1 [Compound I, 5-Biphenyl-4-yl-5-[4-(4-nitro-phenyl)-piperazin-1-yl]pyrimidine-2,4,6-trione]
[1]; 200 mM HP-β-CD, absence of L-lysine
  Increase of aqueous solubility: approximately 10,000 fold
[1]; 500 mM of L-lysine and 200 mM of HP-β-CD
  Increase of aqueous solubility: 70,000 fold
[1]; Purified Water, 25° C.
  Solubility with HP-β-CD (200 mM): 5530 µg/mL
[2]
  solubility: ~700 µg/mL (≈ 1440 µM)
[3]
  Angiogenesis (formation of new vessels): inhibited significantly
[4]; 3.75 to 30 mg/kg, equal efficacy of all tested formulations
  Peribronchial inflammation scores: significantly lowered
[4]; doses of 7.5 and 25 mg/kg
  Tissue eosinophil infiltration score: significantly lowered
[4]; solution or precipitate, 3.75 to 30 mg/kg, compared to placebo, OVA-sensitized mice
  Allergen-induced airway eosinophilic inflammation in BAL: lowered
[5]
  Tissue eosinophil infiltration score: decreased
